Measurements from ChEMBL document CHEMBL1201862, “PubChem BioAssay data set” (2004).
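How tested: cells in 96-well plates exposed to compound for 48 hours at five concentrations. GI50 is the concentration that inhibits growth by half.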 Active and inactive are the calls of the source. Rule as the data show it: active = GI50 up to about 1.1 µM and inactive = higher.

How the values were obtained:
Experiment in all cases: NCI anticancer screen, dose series, 48 h
[1] = tested on: LOX IMVI
[2] = tested on: EKVX
[3] = tested on: SF-295
[4] = tested on: SW-620
[5] = tested on: Malme-3M
[6] = tested on: UACC-257
[7] = tested on: HOP-92
[8] = tested on: RPMI-8226
[9] = tested on: OVCAR-5
[10] = tested on: HOP-62
[11] = tested on: UO-31
[12] = tested on: SK-MEL-28
[13] = tested on: SNB-75
[14] = tested on: M19-MEL
[15] = tested on: OVCAR-8
[16] = tested on: HCT-15
[17] = tested on: HT-29
[18] = tested on: NCI-H460
[19] = tested on: M14
[20] = tested on: PC-3

Row | SMILES | GI50 [1] | GI50 [2] | GI50 [3] | GI50 [4] | GI50 [5] | GI50 [6] | GI50 [7] | GI50 [8] | GI50 [9] | GI50 [10] | GI50 [11] | GI50 [12] | GI50 [13] | GI50 [14] | GI50 [15] | GI50 [16] | GI50 [17] | GI50 [18] | GI50 [19] | GI50 [20]
1 | O=C1OC(=O)c2c1c(-c1ccccc1)cn2-c1ccc(Cl)cc1 | 48.1 µM (inactive) | 41.1 µM (inactive) | > 100 µM (inactive) | > 100 µM (inactive) | > 100 µM (inactive) | > 100 µM (inactive) | > 100 µM (inactive) | 26.8 µM (inactive) | > 100 µM (inactive) | 14.6 µM (inactive) | > 100 µM (inactive) | > 100 µM (inactive) | > 100 µM (inactive) | 21.1 µM (inactive) | > 100 µM (inactive) | 45.3 µM | > 100 µM (inactive) | > 100 µM (inactive) | 8.28 µM (inactive) | –
2 | C=COC(=O)N[C@H]1CCc2cc(OC)c(OC)c(OC)c2-c2ccc(SC)c(=O)cc21 | < 0.01 µM (active) | 8.43 µM (inactive) | < 0.01 µM (active) | < 0.0286 µM (active) | < 0.01 µM (active) | 0.116 µM (active) | < 0.01 µM (active) | < 0.01 µM (active) | 0.173 µM (active) | < 0.0157 µM (active) | < 0.048 µM (active) | 1.36 µM (inactive) | 0.0578 µM (active) | < 0.01 µM (active) | 0.0133 µM (active) | < 0.01 µM | < 0.01 µM (active) | < 0.01 µM (active) | < 0.01 µM (active) | < 0.01 µM (active)
3 | CC(C)CC(NC(=O)OC(C)(C)C)C(=O)Nc1ccc(Nc2nc(F)nc(-c3c4ccccc4cn3C)n2)cc1 (stereo not given) | > 100 µM (inactive) | 52.7 µM (inactive) | > 81.7 µM (inactive) | > 36 µM (inactive) | > 100 µM (inactive) | > 100 µM (inactive) | 52.2 µM (inactive) | 3.07 µM (inactive) | > 100 µM (inactive) | 12.7 µM (inactive) | 44.9 µM (inactive) | > 100 µM (inactive) | 47.1 µM (inactive) | 97.9 µM (inactive) | 98.6 µM (inactive) | > 68.9 µM | 23.1 µM (inactive) | > 75 µM (inactive) | > 100 µM (inactive) | 35.1 µM (inactive)
4 | N/N=C(\Cc1ccccc1)NN=C(N)N | > 100 µM (inactive) | > 100 µM (inactive) | > 100 µM (inactive) | > 100 µM (inactive) | > 100 µM (inactive) | > 100 µM (inactive) | > 100 µM (inactive) | > 100 µM (inactive) | > 100 µM (inactive) | – | > 100 µM (inactive) | > 100 µM (inactive) | > 100 µM (inactive) | > 100 µM (inactive) | > 100 µM (inactive) | 74.8 µM | > 100 µM (inactive) | > 100 µM (inactive) | > 100 µM (inactive) | –
5 | O=C1CCC(=O)c2c1c(O)c1ccncc1c2O | 13.8 µM (inactive) | 27.8 µM (inactive) | 18 µM (inactive) | 16.4 µM (inactive) | 16 µM (inactive) | 7.5 µM (inactive) | 22.8 µM (inactive) | 17.5 µM (inactive) | 23 µM (inactive) | 30.9 µM (inactive) | 15.5 µM (inactive) | 20.5 µM (inactive) | 18.7 µM (inactive) | 2.92 µM (inactive) | 10 µM (inactive) | 12.9 µM | 6.62 µM (inactive) | 15.1 µM (inactive) | 15.6 µM (inactive) | –
6 | CC(=O)OCC1=CC2CCC3C(C)(CCC[C@]3(C)COC(C)=O)C23CC[C@H]1C3 (stereo not given in full) | 25 µM (inactive) | 83 µM (inactive) | 37.3 µM (inactive) | 56.6 µM (inactive) | 52.8 µM (inactive) | 37.7 µM (inactive) | 27.8 µM (inactive) | 21.6 µM (inactive) | > 100 µM (inactive) | 75.9 µM (inactive) | 53.7 µM (inactive) | > 100 µM (inactive) | 34.9 µM (inactive) | 34.5 µM (inactive) | 53.7 µM (inactive) | > 100 µM | 35.8 µM (inactive) | > 100 µM (inactive) | 36 µM (inactive) | –
7 | O=C(c1nc2ccc([N+](=O)[O-])cc2nc1O)C(O)c1ccc2c(c1)OCO2 (stereo not given) | > 67.9 µM (inactive) | > 100 µM (inactive) | > 52.5 µM (inactive) | > 100 µM (inactive) | > 100 µM (inactive) | > 100 µM (inactive) | > 100 µM (inactive) | 55.5 µM (inactive) | > 100 µM (inactive) | > 100 µM (inactive) | > 100 µM (inactive) | > 100 µM (inactive) | > 100 µM (inactive) | > 100 µM (inactive) | > 100 µM (inactive) | > 62.2 µM | > 100 µM (inactive) | > 100 µM (inactive) | > 94 µM (inactive) | > 100 µM (inactive)
8 | O=C1C=CC(=O)c2c1cc1ccccc1c2O | 2.72 µM (inactive) | 11.5 µM (inactive) | 17.1 µM (inactive) | 1.86 µM (inactive) | 6.18 µM (inactive) | 3.18 µM (inactive) | 1.8 µM (inactive) | 2.43 µM (inactive) | 18.4 µM (inactive) | 16.7 µM (inactive) | 3.15 µM (inactive) | 9.25 µM (inactive) | 18.1 µM (inactive) | 4.01 µM (inactive) | 2.58 µM (inactive) | 4.8 µM | 7.53 µM (inactive) | 19.1 µM (inactive) | 10.7 µM (inactive) | 6.03 µM (inactive)
9 | COc1nc(C(Cl)(Cl)Cl)c(Cl)c(OC)c1Cl [PENCLOMEDINE] | 29 µM (inactive) | 40.8 µM (inactive) | 40.2 µM (inactive) | 39.4 µM (inactive) | 31.2 µM (inactive) | 43.8 µM (inactive) | 28.2 µM (inactive) | 24.1 µM (inactive) | 42.9 µM (inactive) | 12.1 µM (inactive) | 40.8 µM (inactive) | 39.7 µM (inactive) | 7.76 µM (inactive) | 31.5 µM (inactive) | 21.2 µM (inactive) | 40.6 µM | 14.6 µM (inactive) | 21.9 µM (inactive) | 40 µM (inactive) | 39.6 µM (inactive)
10 | Nc1nc(SCc2ccccc2[N+](=O)[O-])c2[nH]cnc2n1 | > 53.3 µM (inactive) | > 53.5 µM (inactive) | > 67.6 µM (inactive) | > 73.6 µM (inactive) | > 30.6 µM (inactive) | > 40.1 µM (inactive) | 2.23 µM (inactive) | > 47.2 µM (inactive) | 42.3 µM (inactive) | > 69.5 µM (inactive) | > 66.5 µM (inactive) | > 61.1 µM (inactive) | > 42.5 µM (inactive) | > 100 µM (inactive) | > 52.8 µM (inactive) | > 56.5 µM | 32.8 µM (inactive) | > 40.2 µM (inactive) | > 53.3 µM (inactive) | 31.5 µM (inactive)
